# Values quoted from earlier work, collected in US12653950B2, “Predictive biological homeostasis” (priority 2020, dated 2026).
# Columns and labels:
# [1] = in vivo
# NF-κB = conditions: pro-inflammatory signaling pathway involved in Lyme-induced inflammation
# [2] = not given; remark: listed apart in the source
# Borrelia burgdorferi = conditions: one animal study (Pothineni et al. 2020)
compound,measurement,setting,value
Nc1nc2c(ncn2COCCO)c(=O)[nH]1 [Acyclovir],toxic side effects in the kidneys,[1],toxic side effects in the kidneys
COc1cc(/C=C/C(=O)CC(=O)/C=C/c2ccc(O)c(OC)c2)ccc1O [Curcumin],activation of NF-κB,NF-κB,blocking the activation
O=c1c(O)c(-c2ccc(O)c(O)c2)oc2cc(O)cc(O)c12 [Quercetin],stability in physiological systems,,unstable
same,solubility in water,[2],poorly soluble
CC1(C)S[C@@H]2[C@H](NC(=O)[C@H](NC(=O)N3CCNC3=O)c3ccccc3)C(=O)N2[C@H]1C(=O)O [azlocillin],killing of disease-causing bacteria Borrelia burgdorferi,Borrelia burgdorferi,completely kills off
